The target of test [1] is T1, human M3 muscarinic receptor (Homo sapiens, UniProt P20309).
T1 construct: expressed in transfected cells; host or cells: CHO-K1
The test can be described thus: Inhibitory effect on methacholine-induced calcium influx, FLIPR assay, CHO-K1 cells stably expressing the human M3 muscarinic receptor. The class given is cell-based. The note with it: inhibition of calcium influx induced by methacholine. An excerpt:
Muscarinic receptor subtypes (M1, M3 and M5 receptors), which couple to Gq proteins, activate the phospholipase C (PLC) pathway upon agonist binding to the receptor. As a result, the activated PLC hydrolyzes phosphatidyl inositol diphosphate (PIP2) to diacyl glycerol (DAG) and […] (IP3), which in turn generates calcium release from intracellular stores, i.e., endoplasmic and sarcoplasmic reticula. By utilizing FLIPR (Molecular Devices, Inc.) assay in which a calcium sensitive dye (Component A) is used that fluoresces when free calcium binds, the increase in intracellular calcium is measured on the basis of the change in the fluorescence intensity.
Methacholine was added to CHO-K1 cells stably expressing the human M3 muscarinic receptor to induce calcium influx and evaluate the inhibitory effect of test compounds. In the experiment, a FLIPR Calcium assay kit (Molecular Devices, Inc.) was used.
CHO-K1 cells stably expressing the human M3 muscarinic receptor suspended in Ham's F-12 media (Invitrogen, Co.) containing 10% fetal bovine serum (FBS) were seeded into 96-well FLIPR plates at a volume of 100 μL/well. Next day, 60 μL/well of Non-wash-dye solution (Hank's buffered salt solution, HBSS, containing 20 mM HEPES and 6.5 mM probenecid) was added to the cells, which were then incubated for an hour at 37° C. in the presence of 5% carbon dioxide. 20 μL of 10 concentrations of test compound solutions (HBSS containing 1% DMSO, 20 mM HEPES, 2.5 mM probenecid and 0.05% bovine serum albumin, BSA) prepared at concentrations in a range of 0.01-1000 nM with 2-fold serial dilution) were added, followed by incubation for 180 seconds. Then, 20 μL of 30 nM methacholine solution (HBSS containing 20 mM HEPES, 2.5 mM probenecid and 0.05% bovine serum albumin, BSA) was added, and fluorescence intensity was traced by the intracellular calcium influx measuring device FLIPR 96 (Molecular Devices, Inc.) for 170 seconds. The difference between the lowest and the highest values of the fluorescence intensity (FI) over the period of the measurement was used as a measured value. The percentages of inhibition by the test compounds were calculated according to the following formula from the measured value of the methacholin-added and test compound non-added sample (FIpositive), the measured value of the methacholin non-added and test compound non-added sample (FInegative), and the measured value of the methacholin-added and test compound-added sample (FItest). (%) Percentage of inhibition by test compound=[(1−(FItest−FInegative)/(FIpositive−FInegative)]×100
The 50% inhibitory concentrations (IC50 values) of test compounds were analyzed by a four-parameter logistic model using XLfit4 (IDBS, Ltd.) for the percentage of the inhibition by different concentrations of test compounds.

Test [2] addresses T2, human β2 adrenergic receptor (Homo sapiens, UniProt P07550).
T2 construct: expressed in transfected cells; host or cells: CHO-K1
The test can be described thus: Whole-cell cAMP Flashplate assay using CHO-K1 cells stably expressing human β2 adrenergic receptor. Format: cell-based. To be noted: cAMP production.

Where a name gives a salt, the structure may show the parent alone.

T1 sequence (P20309 whole entry): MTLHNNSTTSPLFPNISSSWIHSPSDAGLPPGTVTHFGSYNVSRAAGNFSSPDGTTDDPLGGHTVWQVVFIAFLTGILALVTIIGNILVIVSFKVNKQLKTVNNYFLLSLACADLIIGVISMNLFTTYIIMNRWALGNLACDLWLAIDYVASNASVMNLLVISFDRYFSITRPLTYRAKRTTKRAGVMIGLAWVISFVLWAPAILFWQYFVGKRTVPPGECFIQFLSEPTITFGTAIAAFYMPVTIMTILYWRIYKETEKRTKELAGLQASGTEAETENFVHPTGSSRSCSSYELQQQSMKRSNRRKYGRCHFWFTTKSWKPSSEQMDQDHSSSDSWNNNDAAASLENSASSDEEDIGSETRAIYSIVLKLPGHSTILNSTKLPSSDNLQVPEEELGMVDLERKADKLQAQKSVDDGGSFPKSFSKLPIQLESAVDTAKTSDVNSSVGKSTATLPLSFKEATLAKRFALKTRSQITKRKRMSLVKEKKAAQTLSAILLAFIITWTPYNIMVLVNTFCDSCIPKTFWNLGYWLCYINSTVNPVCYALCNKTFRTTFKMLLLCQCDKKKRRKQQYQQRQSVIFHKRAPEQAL
T2 sequence (P07550 whole entry): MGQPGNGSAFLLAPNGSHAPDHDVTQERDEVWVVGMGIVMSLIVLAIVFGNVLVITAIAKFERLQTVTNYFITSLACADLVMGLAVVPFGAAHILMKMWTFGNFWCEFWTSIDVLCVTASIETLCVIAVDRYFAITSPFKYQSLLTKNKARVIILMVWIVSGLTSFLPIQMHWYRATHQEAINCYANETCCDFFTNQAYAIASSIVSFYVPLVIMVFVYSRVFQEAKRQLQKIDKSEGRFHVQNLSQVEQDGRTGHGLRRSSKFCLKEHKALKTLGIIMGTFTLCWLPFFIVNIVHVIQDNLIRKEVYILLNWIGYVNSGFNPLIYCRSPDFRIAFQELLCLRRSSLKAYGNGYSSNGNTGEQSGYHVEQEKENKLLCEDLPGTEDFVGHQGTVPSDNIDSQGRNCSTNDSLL

The term IC50 denotes the concentration needed to halve the response being measured. Broadly, the EC50 is the concentration needed to bring the measured effect to its halfway point. Read a low EC50 as higher potency in that assay. With `C[N+]1(C)[C@@H]2C[C@@H](OC(=O)Nc3cc(CCCC(=O)Nc4ccc(CNC[C@H](O)c5ccc(O)c6[nH]c(=O)ccc56)cc4)ccc3-c3ccccc3)C[C@H]1[C@@H]1O[C@@H]12` [Example 33, (1R,2R,4S,5S,7S)-7-({[5-(3-{[4-({[(2R)-2-hydroxy-2-(8-hydroxy-2-oxo-1,2-dihydroquinolin-5-yl)ethyl]amino}methyl)phenyl]carbamoyl}propyl)-2-phenylphenyl]carbamoyl}oxy)-9,9-dimethyl-3-oxa-9-azatricyclo[3.3.1.0^2,4]nonan-9-ium trifluoroacetate], the IC50 in test [1] is 22.1 nM. The molecule also showed an EC50 in test [2] of 4.6 nM.
The like results for `COc1cc(NC(=O)CCCc2ccc(-c3ccccc3)c(NC(=O)O[C@@H]3C[C@@H]4[C@H]5O[C@H]5[C@H](C3)[N+]4(C)C)c2)c(Cl)cc1CNC[C@H](O)c1ccc(O)c2[nH]c(=O)ccc12` [Example 34, (1R,2R,4S,5S,7S)-7-({[5-(3-{[2-chloro-4-({[(2R)-2-hydroxy-2-(8-hydroxy-2-oxo-1,2-dihydroquinolin-5-yl)ethyl]amino}methyl)-5-methoxyphenyl]carbamoyl}propyl)-2-phenylphenyl]carbamoyl}oxy)-9,9-dimethyl-3-oxa-9-azatricyclo[3.3.1.0^2,4]nonan-9-ium trifluoroacetate] were, in that order, 22 nM and 1.2 nM.
On to `COc1cc(NC(=O)CCCc2ccc(-c3ccccc3)c(NC(=O)O[C@@H]3C[C@@H]4[C@H]5O[C@H]5[C@H](C3)[N+]4(C)C)c2)ccc1CNC[C@H](O)c1ccc(O)c2[nH]c(=O)ccc12` [Example 36, (1R,2R,4S,5S,7S)-7-({[5-(3-{[4-({[(2R)-2-hydroxy-2-(8-hydroxy-2-oxo-1,2-dihydroquinolin-5-yl)ethyl]amino}methyl)-3-methoxyphenyl]carbamoyl}propyl)-2-phenylphenyl]carbamoyl}oxy)-9,9-dimethyl-3-oxa-9-azatricyclo[3.3.1.0^2,4]nonan-9-ium trifluoroacetate], for which the IC50 in test [1] stood at 27.1 nM. The molecule further had an EC50 in test [2] of 4.3 nM.
With `C[N+]1(C)[C@@H]2CC(OC(=O)Nc3cc(CCCC(=O)Nc4ccc(CNC[C@H](O)c5ccc(O)c6[nH]c(=O)ccc56)cc4Cl)ccc3-c3ccccc3)C[C@H]1[C@@H]1O[C@@H]12` (stereo partly drawn) [Example 37, (1R,2R,4S,5S,7S)-7-({[5-(3-{[2-chloro-4-({[(2R)-2-hydroxy-2-(8-hydroxy-2-oxo-1,2-dihydroquinolin-5-yl)ethyl]amino}methyl)phenyl]carbamoyl}propyl)-2-phenylphenyl]carbamoyl}oxy)-9,9-dimethyl-3-oxa-9-azatricyclo[3.3.1.0^2,4]nonan-9-ium trifluoroacetate], the IC50 in test [1] came out at 18.2 nM. In test [2], this molecule yielded an EC50 of 4 nM.
For the molecule `COc1cc(CNC[C@H](O)c2ccc(O)c3[nH]c(=O)ccc23)ccc1NC(=O)CCCc1ccc(-c2ccccc2)c(NC(=O)OC2C[C@@H]3[C@H]4O[C@H]4[C@H](C2)[N+]3(C)C)c1` (stereo partly drawn) [Example 38, (1R,2R,4S,5S,7S)-7-({[5-(3-{[4-({[(2R)-2-hydroxy-2-(8-hydroxy-2-oxo-1,2-dihydroquinolin-5-yl)ethyl]amino}methyl)-2-methoxyphenyl]carbamoyl}propyl)-2-phenylphenyl]carbamoyl}oxy)-9,9-dimethyl-3-oxa-9-azatricyclo[3.3.1.0^2,4]nonan-9-ium trifluoroacetate], in test [1], the concentration for half-maximal inhibition (IC50) turned out to be 15.6 nM. Also, in test [2], it took 10.6 nM to reach a half-maximal effect (EC50).
On the same counts, the results for `Cc1cc(CNC[C@H](O)c2ccc(O)c3[nH]c(=O)ccc23)ccc1NC(=O)CCCc1ccc(-c2ccccc2)c(NC(=O)O[C@@H]2C[C@@H]3[C@H]4O[C@H]4[C@H](C2)[N+]3(C)C)c1` [Example 39, (1R,2R,4S,5S,7S)-7-({[5-(3-{[4-({[(2R)-2-hydroxy-2-(8-hydroxy-2-oxo-1,2-dihydroquinolin-5-yl)ethyl]amino}methyl)-2-methylphenyl]carbamoyl}propyl)-2-phenylphenyl]carbamoyl}oxy)-9,9-dimethyl-3-oxa-9-azatricyclo[3.3.1.0^2,4]nonan-9-ium trifluoroacetate] are 16 nM and 4 nM.
On the same counts, the results for `COc1cc(CNC[C@H](O)c2ccc(O)c3[nH]c(=O)ccc23)ccc1NC(=O)CCc1ccc(-c2ccccc2)c(NC(=O)O[C@@H]2C[C@@H]3[C@H]4O[C@H]4[C@H](C2)[N+]3(C)C)c1` [Example 41, (1R,2R,4S,5S,7S)-7-({[5-(2-{[4-({[(2R)-2-hydroxy-2-(8-hydroxy-2-oxo-1,2-dihydroquinolin-5-yl)ethyl]amino}methyl)-2-methoxyphenyl]carbamoyl}ethyl)-2-phenylphenyl]carbamoyl}oxy)-9,9-dimethyl-3-oxa-9-azatricyclo[3.3.1.0^2,4]nonan-9-ium trifluoroacetate] are 12.9 nM and 6.2 nM.
On the same counts, the results for `COc1cc(NC(=O)CCc2ccc(-c3ccccc3)c(NC(=O)O[C@@H]3C[C@@H]4[C@H]5O[C@H]5[C@H](C3)[N+]4(C)C)c2)ccc1CNC[C@H](O)c1ccc(O)c2[nH]c(=O)ccc12` [Example 42, (1R,2R,4S,5S,7S)-7-({[5-(2-{[4-({[(2R)-2-hydroxy-2-(8-hydroxy-2-oxo-1,2-dihydroquinolin-5-yl)ethyl]amino}methyl)-3-methoxyphenyl]carbamoyl}ethyl)-2-phenylphenyl]carbamoyl}oxy)-9,9-dimethyl-3-oxa-9-azatricyclo[3.3.1.0^2,4]nonan-9-ium trifluoroacetate] are 12.3 nM and 0.8 nM.
Take `Cc1cc(CNC[C@H](O)c2ccc(O)c3[nH]c(=O)ccc23)ccc1NC(=O)CCc1ccc(-c2ccccc2)c(NC(=O)OC2C[C@@H]3[C@H]4O[C@H]4[C@H](C2)[N+]3(C)C)c1` (stereo partly drawn) [Example 43, (1R,2R,4S,5S,7S)-7-({[5-(2-{[4-({[(2R)-2-hydroxy-2-(8-hydroxy-2-oxo-1,2-dihydroquinolin-5-yl)ethyl]amino}methyl)-2-methylphenyl]carbamoyl}ethyl)-2-phenylphenyl]carbamoyl}oxy)-9,9-dimethyl-3-oxa-9-azatricyclo[3.3.1.0^2,4]nonan-9-ium trifluoroacetate]: in test [1], the half-maximal inhibitory concentration (IC50) is 8.5 nM. Further, the EC50 in test [2] was found to be 3 nM.
The like results for `C[N+]1(C)[C@@H]2CC(OC(=O)Nc3cc(CCC(=O)Nc4ccc(CNC[C@H](O)c5ccc(O)c6[nH]c(=O)ccc56)cc4Cl)ccc3-c3ccccc3)C[C@H]1[C@@H]1O[C@@H]12` (stereo partly drawn) [Example 44, (1R,2R,4S,5S,7S)-7-({[5-(2-{[2-chloro-4-({[(2R)-2-hydroxy-2-(8-hydroxy-2-oxo-1,2-dihydroquinolin-5yl)ethyl]amino}methyl)phenyl]carbamoyl}ethyl)-2-phenylphenyl]carbamoyl}oxy)-9,9-dimethyl-3-oxa-9-azatricyclo[3.3.1.0^2,4]nonan-9-ium trifluoroacetate] were, in that order, 13.9 nM and 1.7 nM.
For the molecule `C[N+]1(C)[C@@H]2CC(OC(=O)Nc3cc(CCC(=O)Nc4ccc(CNC[C@H](O)c5ccc(O)c6[nH]c(=O)ccc56)c(Cl)c4)ccc3-c3ccccc3)C[C@H]1[C@@H]1O[C@@H]12` (stereo partly drawn) [Example 45, (1R,2R,4S,5S,7S)-7-({[5-(2-{[3-chloro-4-({[(2R)-2-hydroxy-2-(8-hydroxy-2-oxo-1,2-dihydroquinolin-5-yl)ethyl]amino}methyl)phenyl]carbamoyl}ethyl)-2-phenylphenyl]carbamoyl}oxy)-9,9-dimethyl-3-oxa-9-azatricyclo[3.3.1.0^2,4]nonan-9-ium trifluoroacetate], in test [1], the IC50 turned out to be 26.5 nM. Further, in test [2], a half-maximal effect (EC50) was put at 4.1 nM.
On the same counts, the results for `COc1cc(NC(=O)CCc2ccc(-c3ccccc3)c(NC(=O)O[C@@H]3C[C@@H]4[C@H]5O[C@H]5[C@H](C3)[N+]4(C)C)c2)c(Cl)cc1CNC[C@H](O)c1ccc(O)c2[nH]c(=O)ccc12` [Example 46, (1R,2R,4S,5S,7S)-7-({[5-(2-{[2-chloro-4-({[(2R)-2-hydroxy-2-(8-hydroxy-2-oxo-1,2-dihydroquinolin-5-yl)ethyl]amino}methyl)-5-methoxyphenyl]carbamoyl}ethyl)-2-phenylphenyl]carbamoyl}oxy)-9,9-dimethyl-3-oxa-9-azatricyclo[3.3.1.0^2,4]nonan-9-ium trifluoroacetate] are 16.5 nM and 1.4 nM.

The record behind these values is patent US9072734B2, “Quaternary ammonium salt compounds” (Teijin Pharma Limited, priority 2009, dated 2015).
